This is an account of results in publication PMC5524698, “A cell-based, quantitative and isoform-specific assay for exchange proteins directly activated by cAMP” (Scientific Reports, 2017).

Test [1] deals with T1, EPAC1 (Homo sapiens, UniProt O95398).
T1 construct: HEK293 cell lines stably expressing Flag-tagged Rap1A and full-length EPAC1 or EPAC2 are proposed; expressed in transfected cells
T1 sequence (O95398 1-923): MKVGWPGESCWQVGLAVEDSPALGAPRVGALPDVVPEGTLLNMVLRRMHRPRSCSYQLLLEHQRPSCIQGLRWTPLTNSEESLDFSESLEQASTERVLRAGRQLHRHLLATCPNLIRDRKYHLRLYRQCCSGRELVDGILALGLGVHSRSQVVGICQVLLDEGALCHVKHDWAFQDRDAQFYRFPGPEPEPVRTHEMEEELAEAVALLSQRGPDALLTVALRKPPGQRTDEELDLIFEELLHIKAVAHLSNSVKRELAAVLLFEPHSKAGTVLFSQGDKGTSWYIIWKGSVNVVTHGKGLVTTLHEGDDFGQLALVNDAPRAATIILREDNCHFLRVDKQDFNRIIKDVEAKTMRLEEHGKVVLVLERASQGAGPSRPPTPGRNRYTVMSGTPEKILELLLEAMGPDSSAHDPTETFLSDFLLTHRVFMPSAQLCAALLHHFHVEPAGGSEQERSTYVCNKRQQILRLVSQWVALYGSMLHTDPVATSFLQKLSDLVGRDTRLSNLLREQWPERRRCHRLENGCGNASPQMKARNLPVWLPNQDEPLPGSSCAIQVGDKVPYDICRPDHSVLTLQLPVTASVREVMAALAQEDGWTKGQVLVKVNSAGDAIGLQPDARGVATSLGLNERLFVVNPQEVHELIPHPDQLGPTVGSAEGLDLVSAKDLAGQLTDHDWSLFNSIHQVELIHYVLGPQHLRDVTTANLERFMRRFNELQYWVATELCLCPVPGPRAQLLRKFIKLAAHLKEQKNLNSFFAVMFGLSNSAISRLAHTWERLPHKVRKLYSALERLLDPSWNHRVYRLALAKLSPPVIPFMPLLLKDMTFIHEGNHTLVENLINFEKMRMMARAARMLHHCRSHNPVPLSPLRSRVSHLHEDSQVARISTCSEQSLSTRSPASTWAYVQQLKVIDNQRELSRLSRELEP
In words: Cellular Rap1 assay (ELISA for Rap1-GTP) in HEK293/hEPAC1/Flag-Rap1 cells. The following applies: for AC50: 10 min stimulation, read-out: apparent half maximal activation constant (AC50), Rap1-GTP levels. It counts as cell-based. The source says: To develop a cell-based, isoform-specific EPAC activation assay, HEK293 cell lines stably expressing Flag-tagged Rap1A and full-length EPAC1 or EPAC2 are proposed. HEK293 cells express minimal endogenous levels of EPAC1 and EPAC2 and have been used as host cells for evaluating the cellular activities of ectopically expressed EPAC proteins in an isoform-specific manner. Activation of EPAC1 or EPAC2 in these cell lines by cAMP elevating agents leads to the accumulation of Flag-Rap1-GTP, which can be captured by RalGDS-RBD immobilized in a nickel-coated 96-well microplate. The levels of active Flag-Rap1-GTP protein can be quantitatively monitored using a specific anti-FLAG antibody and a HRP conjugated secondary antibody in a manner similar to that of a conventional ELISA assay (Fig. 1).
HEK293 (ATCC) cells were grown in MEM medium supplemented with 10% heat-inactivated FBS (Invitrogen), at 37 °C, 5% CO2. HEK293 stable cell lines expressing Flag-tagged human Rap1A (Flag-hRap1A) alone and co-expressing human EPAC1 (hEPAC1) and Flag-hRap1A or mouse EPAC2 (mEPAC2) and Flag-hRap1A were established by sequential transfections using Lipofectamine 2000 reagent (Invitrogen) with mammalian expression vectors, first with pIRES2-EGFP containing Flag-hRap1A and followed by pIRES‐hyg2 containing hEPAC1 or mEPAC2. Individual stable cell clones were selected and maintained in MEM containing 500 µg/ml G418 for pIRES2-EGFP and 100 µg/ml hygromycin B for pIRES‐hyg2, respectively.
HEK293 cells co-expressing hEPAC1/Flag-tagged hRap1A or mEPAC2/Flag-tagged hRap1A were seeded in 12-well plates (Corning #3513) at an initial confluency of 400,000 cell/well and incubate at 37 °C, 5% CO2, in MEM medium with 10% FBS, for 24 hours. Cells were then rinsed with HBSS and cultured in FBS-free MEM medium for another 16 hours. If necessary cells were first pretreated with various concentration of antagonists or vehicle at 37 °C for 30 min. Otherwise, the cells were stimulated with various concentrations of agonists or vehicle controls at 37 °C for 10 min, then immediately rinsed with ice-cold PBS and lysed in 500 µl ice-cold lysis buffer containing 20 mM Tris-HCl, pH 7.4, 150 mM NaCl, 10 mM MgCl2, 1% IGEPAL CA-630 and proteinase inhibitors cocktail. Cell extracts were clarified by centrifugation at 18,000 RCF for 20 min and their protein concentrations were determined by DC protein assay kit. 100 µl of properly diluted cell lysates containing 0 to 50 µg total proteins were added to nickel coated 96-well plate strips that were pre-coated with 200 µg of RalGDS-RBD-His6 proteins and incubated at 4 °C for 2 hours with gentle rocking. After washing with 100 µl ice-cold ELISA buffer (20 mM Tris-HCl, pH 7.4, 150 mM NaCl, 10 mM MgCl2 and 0.1% Tween-20) for 3 times, 100 µl mouse anti-Flag antibody (1:5000 in ELISA buffer) was added into each well and incubated at 4 °C for 1 hour with gentle shaking. Following three washes with 100 µl ice-cold ELISA buffer, 100 µl anti-mouse HRP-conjugated antibodies (1:3000 in ELISA buffer) were added into each well. After incubation at room temperature for 1 hour with gentle shaking, the wells were washed three times with 100 µl ELISA buffer. 200 µl of OPD substrate was added into each well and absorbance signal at 450 nm was monitored using an M2 microplate reader (Molecular Devices) for 30 min with 1-min intervals. 10-min data points were used for quantification.
A general note: In an ELISA, binding on a coated surface is turned into a signal by an enzyme label.

The target in test [2] is T2, EPAC2 (Mus musculus, UniProt Q9EQZ6).
T2 construct: HEK293 cell lines stably expressing Flag-tagged Rap1A and full-length EPAC1 or EPAC2 are proposed; expressed in transfected cells
T2 sequence (Q9EQZ6 1-1011): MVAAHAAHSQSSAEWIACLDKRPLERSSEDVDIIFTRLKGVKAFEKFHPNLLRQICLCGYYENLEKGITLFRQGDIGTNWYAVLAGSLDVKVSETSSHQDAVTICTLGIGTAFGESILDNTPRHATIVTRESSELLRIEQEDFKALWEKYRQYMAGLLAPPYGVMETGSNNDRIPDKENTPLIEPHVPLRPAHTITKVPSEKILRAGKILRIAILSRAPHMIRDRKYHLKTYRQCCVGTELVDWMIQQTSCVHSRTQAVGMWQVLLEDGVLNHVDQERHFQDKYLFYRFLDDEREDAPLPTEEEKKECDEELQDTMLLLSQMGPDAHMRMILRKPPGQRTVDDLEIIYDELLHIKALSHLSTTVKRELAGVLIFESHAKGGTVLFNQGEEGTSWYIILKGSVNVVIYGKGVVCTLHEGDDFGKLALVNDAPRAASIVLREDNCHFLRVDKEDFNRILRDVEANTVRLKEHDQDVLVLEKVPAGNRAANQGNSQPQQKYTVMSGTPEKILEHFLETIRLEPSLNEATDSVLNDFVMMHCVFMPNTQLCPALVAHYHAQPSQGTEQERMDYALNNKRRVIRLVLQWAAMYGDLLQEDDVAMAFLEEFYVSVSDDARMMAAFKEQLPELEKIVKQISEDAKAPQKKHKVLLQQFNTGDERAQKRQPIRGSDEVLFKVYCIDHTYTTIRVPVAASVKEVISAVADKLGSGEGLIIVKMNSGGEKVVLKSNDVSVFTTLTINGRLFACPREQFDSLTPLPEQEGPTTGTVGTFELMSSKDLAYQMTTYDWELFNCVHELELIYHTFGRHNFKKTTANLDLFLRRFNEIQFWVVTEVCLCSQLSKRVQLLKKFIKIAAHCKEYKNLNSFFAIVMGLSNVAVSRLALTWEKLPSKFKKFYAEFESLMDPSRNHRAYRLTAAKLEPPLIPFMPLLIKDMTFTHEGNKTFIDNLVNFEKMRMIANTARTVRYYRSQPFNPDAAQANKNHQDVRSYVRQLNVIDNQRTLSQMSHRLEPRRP
In words: Cellular Rap1 assay (ELISA for Rap1-GTP) in HEK293/mEPAC2/Flag-Rap1 cells. It counts as cell-based.
Method: HEK293 cells co-expressing hEPAC1/Flag-tagged hRap1A or mEPAC2/Flag-tagged hRap1A were seeded in 12-well plates (Corning #3513) at an initial confluency of 400,000 cell/well and incubate at 37 °C, 5% CO2, in MEM medium with 10% FBS, for 24 hours. Cells were then rinsed with HBSS and cultured in FBS-free MEM medium for another 16 hours. If necessary cells were first pretreated with various concentration of antagonists or vehicle at 37 °C for 30 min. Otherwise, the cells were stimulated with various concentrations of agonists or vehicle controls at 37 °C for 10 min, then immediately rinsed with ice-cold PBS and lysed in 500 µl ice-cold lysis buffer containing 20 mM Tris-HCl, pH 7.4, 150 mM NaCl, 10 mM MgCl2, 1% IGEPAL CA-630 and proteinase inhibitors cocktail. Cell extracts were clarified by centrifugation at 18,000 RCF for 20 min and their protein concentrations were determined by DC protein assay kit. […] 200 µl of OPD substrate was added into each well and absorbance signal at 450 nm was monitored using an M2 microplate reader (Molecular Devices) for 30 min with 1-min intervals. 10-min data points were used for quantification.

In test [3] the test system is EPAC2. Also noted: method as in PMID 23091014, PMID 23286832. The following applies: in the presence of 20 µM cAMP; selective for EPAC2, not EPAC1; cited from earlier work.
The target in test [4] is T1, EPAC1. In words: Conventional affinity pull-down assay of Rap1-GTP using GST-RalGDS-RBD, immunoblot. It counts as cell-based. The following applies: HEK293/hEPAC1/Flag-Rap1 cells, various concentrations. An excerpt: Forskolin is a labdane diterpene natural product, commonly used a biochemical tool to stimulate intracellular levels of cAMP[31]. Treatment of HEK293/hEPAC1/Flag-Rap1 or HEK293/mEPAC2/ Flag-Rap1 cells with forskolin led to a dose-dependent increase in Rap1-GTP levels in both cell lines (Fig. 3A,B). […] Since forskolin-mediated increase in intracellular cAMP activates both EPAC and PKA, to ensure that the signals observed in our assay were not in part due to the activation of PKA, control experiments in the presence of a PKA-specific inhibitor, H89, were performed.
Figure S1. Dose-dependent cellular activation of EPAC1 by forskolin. Relative Rap1-GTP levels, as monitored by affinity pull-down assay using GST-RalGDS-RBD, in HEK293 cells overexpressing EPAC1 stimulated by various concentrations of forskolin. Inset: representative immunoblot image of Rap1-GTP levels under basal and forskolin-stimulated conditions.
For orientation: In western blotting, separated proteins are transferred to a membrane and probed.

With `CO[C@@H]1[C@@H]2OP(=O)(OCOC(C)=O)OC[C@H]2O[C@H]1n1c(Sc2ccc(Cl)cc2)nc2c(N)ncnc21` (stereo partly shown) [007-AM, 8-pCPT-2-O-Me-cAMP-AM], the AC50 (usually the midpoint of the concentration-response curve, whichever way the signal moves) in test [1] (HEK293/hEPAC1/Flag-Rap1 cells) was determined as 16.5 ± 3.1 nM. Moreover, in test [2] (up to 10 µM), the “dose-dependent activation of EPAC2 (Rap1-GTP levels)” value is “did not reach plateau”.

For `Cc1ccc(S(=O)(=O)c2c(C)cc(C)cc2C)cc1` [ESI-05], the “inhibition of cellular EPAC1 activation” value in test [1] (stimulated by 1 µM Forskolin, HEK293/hEPAC1/Flag-Rap1 cells) is listed as “no detectable activity”. Moreover, in test [3], the “potency of EPAC2 inhibition” value is “sub-micromolar”.

On to `C=C[C@@]1(C)CC(=O)[C@]2(O)[C@@]3(C)[C@@H](O)CCC(C)(C)[C@@H]3[C@H](O)[C@H](OC(C)=O)[C@@]2(C)O1` [Forskolin], for which the “activation of Rap1 (relative Rap1-GTP levels, pull-down)” value in test [4] is on record as “dose-dependent activation”. The half-maximal activity concentration (AC50) in test [1] (HEK293/hEPAC1/Flag-Rap1 cells) came out at 226 ± 57 nM; in test [2] (10 min stimulation, read-out: apparent half maximal activation constant (AC50), Rap1-GTP levels), 137 ± 36 nM.

As for `O=S(=O)(NCCNC/C=C/c1ccc(Br)cc1)c1cccc2cnccc12` [H89], the “effects on basal and forskolin-induced Rap1 activities” value in test [1] (10 µM H89, HEK293 cells overexpressing EPAC1 (Fig. S2)) is reported as “minimal”.

On to `CC(C)(C)c1cc(C(=O)/C(C#N)=N/Nc2cc(Cl)c(Cl)c(Cl)c2)no1` [NY-0123], for which the 50% inhibitory concentration (IC50) (usually the concentration that gives 50% inhibition) in test [1] (stimulated by 1 µM Forskolin, 30 min pretreatment, HEK293/hEPAC1/Flag-Rap1 cells, read-out: apparent IC50, inhibition of cellular EPAC1 activity) was 4900 ± 600 nM; in test [2] (stimulated by 1 µM Forskolin, 30 min pretreatment, read-out: apparent IC50, inhibition of cellular EPAC2 activity), 9600 ± 1600 nM.
